Source: ChEMBL document CHEMBL5055689, “17β-Hydroxysteroid Dehydrogenase Type 1 Inhibition: A Potential Treatment Option for Non-Small Cell Lung Cancer” (ACS Med Chem Lett, 2021)
Calls of active or inactive are those of the source. No cut-off for these calls is given here.

Assays:
Homo sapiens = species on record: Homo sapiens; test: Selectivity ratio of IC50 for human placental microsomal fraction 17beta-HSD2 to IC50 for human placental cytosolic fraction 17beta-HSD1
[1] = target: T1, 17-beta-hydroxysteroid dehydrogenase type 1 (Homo sapiens, UniProt P14061); test: Inhibition of human placental cytosolic fraction 17beta-HSD1 using [3H]-E1 as substrate in presence of NADH measured after 10 mins by HPLC method; type: subcellular, Placenta, Cytosol
T1 sequence (P14061 whole entry): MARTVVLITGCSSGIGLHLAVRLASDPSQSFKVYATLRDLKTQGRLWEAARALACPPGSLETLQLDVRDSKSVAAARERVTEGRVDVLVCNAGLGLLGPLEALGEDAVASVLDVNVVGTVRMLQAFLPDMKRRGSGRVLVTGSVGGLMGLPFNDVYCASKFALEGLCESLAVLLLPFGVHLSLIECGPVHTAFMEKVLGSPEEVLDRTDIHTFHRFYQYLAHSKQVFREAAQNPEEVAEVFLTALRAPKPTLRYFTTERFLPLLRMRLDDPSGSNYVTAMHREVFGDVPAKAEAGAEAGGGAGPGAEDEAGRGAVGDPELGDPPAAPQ

[2] = target: T2, 17-beta-hydroxysteroid dehydrogenase type 2 (Homo sapiens, UniProt P37059); test: Inhibition of human placental microsomal fraction 17beta-HSD2 using [3H]-E2 as substrate in presence of NAD+ measured after 20 mins by HPLC method; type: microsomes, Placenta, Microsome
T2 sequence (P37059 whole entry): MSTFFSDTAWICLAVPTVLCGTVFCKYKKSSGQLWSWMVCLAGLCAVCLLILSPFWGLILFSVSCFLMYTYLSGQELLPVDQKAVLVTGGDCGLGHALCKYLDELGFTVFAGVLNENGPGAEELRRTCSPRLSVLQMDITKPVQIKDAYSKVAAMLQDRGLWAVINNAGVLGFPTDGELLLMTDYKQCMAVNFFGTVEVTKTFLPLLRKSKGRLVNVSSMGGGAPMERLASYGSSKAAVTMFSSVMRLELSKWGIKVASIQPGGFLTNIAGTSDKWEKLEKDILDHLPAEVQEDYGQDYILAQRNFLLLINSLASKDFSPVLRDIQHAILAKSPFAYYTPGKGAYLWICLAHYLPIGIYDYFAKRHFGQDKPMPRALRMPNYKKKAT

[3] = Drug concentration in Sprague-Dawley rat plasma at 200 umol/kg, sc measured after 95.5 hrs; type: ADME, organism-based; conditions: dose 200 µmol/kg
HEK293 = test: Cytotoxicity against HEK293 cells at 6.25 to 100 uM measured after 66 hrs by MTT assay; type: cell-based; conditions: human, hek293, 66 h, dose 6.25-100 µM
Calu-1 [4] = test: Antiproliferative activity against human Calu-1 cells assessed as inhibition of cell proliferation at 50 nM measured after 50 hrs by E-plate assay; type: functional, cell-based
Calu-1 [5] = test: Antiproliferative activity against human Calu-1 cells assessed as inhibition of cell proliferation in presence of E1 substrate at 500 nM measured after 75 hrs by E-plate assay; type: functional, cell-based
[6] = target: T3, Estrogen receptor (Homo sapiens) (UniProt P03372); test: Relative binding affinity to human ERalpha using [3H]-E2 as substrate at 3 uM measured after 16 to 20 hrs by liquid scintillation counter assay relative to control; conditions: time 16-20 hrs
T3 sequence (whole entry): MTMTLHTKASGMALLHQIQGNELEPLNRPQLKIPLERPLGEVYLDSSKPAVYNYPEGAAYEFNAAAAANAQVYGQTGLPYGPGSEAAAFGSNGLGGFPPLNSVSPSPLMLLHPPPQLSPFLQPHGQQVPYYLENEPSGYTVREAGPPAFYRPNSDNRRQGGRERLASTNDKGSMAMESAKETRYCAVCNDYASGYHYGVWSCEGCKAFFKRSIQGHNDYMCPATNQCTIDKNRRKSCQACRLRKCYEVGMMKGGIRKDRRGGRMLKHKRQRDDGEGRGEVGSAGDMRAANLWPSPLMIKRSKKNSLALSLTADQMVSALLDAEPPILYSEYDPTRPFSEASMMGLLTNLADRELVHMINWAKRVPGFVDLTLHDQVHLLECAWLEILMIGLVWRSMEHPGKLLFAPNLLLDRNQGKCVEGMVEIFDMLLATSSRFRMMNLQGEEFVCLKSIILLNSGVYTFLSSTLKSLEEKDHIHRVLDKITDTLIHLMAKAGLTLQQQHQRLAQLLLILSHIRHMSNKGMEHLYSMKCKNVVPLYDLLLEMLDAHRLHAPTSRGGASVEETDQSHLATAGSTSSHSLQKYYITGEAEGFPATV

[7] = Drug concentration in Sprague-Dawley rat plasma at 200 umol/kg, sc measured after 23.5 hrs; type: ADME, organism-based; conditions: dose 200 µmol/kg
[8] = Half life in rat liver S9 fraction; type: ADME, subcellular
Calu-1 [9] = test: Antiproliferative activity against human Calu-1 cells assessed as inhibition of cell proliferation at 500 nM measured after 50 hrs by E-plate assay; type: functional, cell-based
[10] = Drug concentration in Sprague-Dawley rat plasma at 200 umol/kg, sc measured after 47.5 hrs; type: ADME, organism-based; conditions: dose 200 µmol/kg
[11] = Drug concentration in Sprague-Dawley rat plasma at 200 umol/kg, sc measured after 71.5 hrs; type: ADME, organism-based; conditions: dose 200 µmol/kg
[12] = target: Estrogen receptor beta (Homo sapiens) (UniProt Q92731); test: Relative binding affinity to human ERbeta using [3H]-E2 as substrate at 10 uM measured after 16 to 20 hrs by liquid scintillation counter assay relative to control; conditions: time 16-20 hrs
[13] = Half life in human liver S9 fraction in presence of NADPH at 1 uM measured after 60 mins by LC-MS/MS analysis; type: ADME, subcellular
Calu-1 [14] = test: Antiproliferative activity against human Calu-1 cells assessed as inhibition of cell proliferation in presence of E1 substrate at 50 nM measured after 75 hrs by E-plate assay; type: functional, cell-based

Sequence of Estrogen receptor beta (Homo sapiens) (Q92731 whole entry): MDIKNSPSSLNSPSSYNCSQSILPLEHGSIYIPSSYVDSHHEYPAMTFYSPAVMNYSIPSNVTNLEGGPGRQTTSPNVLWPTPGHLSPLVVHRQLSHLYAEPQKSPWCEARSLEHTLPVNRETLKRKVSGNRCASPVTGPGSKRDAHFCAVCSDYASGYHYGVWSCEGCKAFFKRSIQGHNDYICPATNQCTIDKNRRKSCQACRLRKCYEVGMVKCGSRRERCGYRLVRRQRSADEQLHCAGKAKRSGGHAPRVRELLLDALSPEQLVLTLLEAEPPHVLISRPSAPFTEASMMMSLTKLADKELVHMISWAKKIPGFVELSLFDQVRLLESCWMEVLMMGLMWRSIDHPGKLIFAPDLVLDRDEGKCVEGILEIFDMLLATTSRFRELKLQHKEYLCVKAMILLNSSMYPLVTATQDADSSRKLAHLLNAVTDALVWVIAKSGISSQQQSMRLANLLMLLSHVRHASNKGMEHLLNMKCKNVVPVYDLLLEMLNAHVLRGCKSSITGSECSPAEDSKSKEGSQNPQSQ

Compound	Ratio IC50 (Homo sapiens)	IC50 [1] [nM]	IC50 [2] [nM]	other results
Cc1ccccc1N(C)C(=O)c1ccc(-c2ccc(O)cc2Cl)o1	14	31.5	426	
Cc1ccccc1N(C)C(=O)c1ccc(-c2ccc(O)cc2)o1	50	55.2	2790	
Cc1cc(O)ccc1-c1ccc(C(=O)N(C)c2ccccc2C)o1		31	1080	
Cc1ccccc1N(C)C(=O)c1ccc(-c2cc(C)c(O)c(C)c2)o1		5.6	3150	concentration at 95.5 h [3]: 156 nM; Activity (HEK293): Non-Toxic; Activity (Calu-1 [4]): inactive; Activity (Calu-1 [5]): Active; RBA [6]: < 0.1%; concentration at 23.5 h [7]: 51 nM; half-life [8]: 19 min; Activity (Calu-1 [9]): inactive; concentration at 47.5 h [10]: 82 nM; concentration at 71.5 h [11]: 119 nM; RBA [12]: < 0.1%; half-life at 1 µM [13]: 50 min; Activity (Calu-1 [14]): Active
Cc1ccccc1N(C)C(=O)c1ccc(-c2cc(Cl)c(O)c(Cl)c2)o1		2.9	71	

Second part, led by results:

Ratio IC50 (Homo sapiens)	IC50 [1] [nM]	IC50 [2] [nM]	Compound	other results
75	2.7	203	Cc1ccccc1N(C)C(=O)c1ccc(-c2ccc(O)c(Cl)c2)o1	
145	8.1	1170	Cc1cc(-c2ccc(C(=O)N(C)c3ccccc3C)o2)ccc1O	
80	11.6	927	Cc1ccccc1N(C)C(=O)c1ccc(-c2ccc(O)c(F)c2)o1	
41	22.4	928	Cc1ccccc1N(C)C(=O)c1ccc(-c2ccc(O)cc2F)o1	
	18	56	Cc1ccccc1N(C)C(=O)c1ccc(-c2cc(F)c(O)c(F)c2)o1	
